# In US20050095287A1, “Fosinopril composition” (priority 2003, published 2005):
# Test: Solubility of the active drug (statement)
# Format: physicochemical
smiles,measurement,value
"CCC(=O)O[C@@H](O[P@](=O)(CCCCc1ccccc1)CC(=O)N1C[C@H](C2CCCCC2)C[C@H]1C(=O)O)C(C)C [Fosinipril, Fosinopril]",solubility,highly soluble
